pIC50: −log10 of the molar value. Converted amounts (≈) assume the structure as drawn.
System: not listed separately
Experiment: Clearance in rat plasma at 10 mg/kg, iv administered 15 mins of infusion measured for 0 to 24 hrs by LC-MS/MS analysis
Format: ADME, organism-based
Set-up: dose 10 mg/kg, route intravenous
Conditions: not given

`CCNC(=O)Nc1cc(-c2nc(C(F)(F)F)cs2)c(-c2cncc(-c3nc(C)no3)c2)cn1` and `CCNC(=O)Nc1cc(-c2nc(C(F)(F)F)cs2)c(-c2cncc(-c3nnc(C)o3)c2)cn1` are within 1.5-fold of each other in clearance: 100 mL/min/kg for the first, 123 mL/min/kg for the second.

Compared with `CCNC(=O)Nc1cc(-c2nc(C(F)(F)F)cs2)c(-c2cncc(C#N)c2)cn1`, `CCNC(=O)Nc1cc(-c2nc(C(F)(F)F)cs2)c(-c2cncc(/C(N)=N/O)c2)cn1` is 5-fold lower in clearance: 110 mL/min/kg for the first, 22 mL/min/kg for the second.

System: not listed separately
Experiment: Unbound fraction in human at 10 uM after 16 hrs by LC-MS/MS analysis
Format: ADME
Conditions: plasma

Going from `CCNC(=O)Nc1cc(-c2nc(C(F)(F)F)cs2)c(-c2cncc(-c3nc(C)no3)c2)cn1` to `CCNC(=O)Nc1cc(-c2nc(C(F)(F)F)cs2)c(-c2cncc(-c3nnc(C)o3)c2)cn1`, the fraction unbound at 16 h, 10 µM rises from 0.063 to 0.11.

Going from `CCNC(=O)Nc1cc(-c2nc(C(F)(F)F)cs2)c(-c2cncc(C#N)c2)cn1` to `CCNC(=O)Nc1cc(-c2nc(C(F)(F)F)cs2)c(-c2cncc(/C(N)=N/O)c2)cn1`, the fraction unbound at 16 h, 10 µM rises from 0.059 to 0.35.

System: not listed separately
Experiment: Solubility of the compound
Format: physicochemical
Conditions: not given

Compared with `CCNC(=O)Nc1cc(-c2nc(C(F)(F)F)cs2)c(-c2cncc(-c3nc(C)no3)c2)cn1`, `CCNC(=O)Nc1cc(-c2nc(C(F)(F)F)cs2)c(-c2cncc(-c3nnc(C)o3)c2)cn1` is higher in solubility: < 1 µM for the first, 1 µM (≈ 0.475 µg/mL) for the second.

Going from `CCNC(=O)Nc1cc(-c2nc(C(F)(F)F)cs2)c(-c2cncc(C#N)c2)cn1` to `CCNC(=O)Nc1cc(-c2nc(C(F)(F)F)cs2)c(-c2cncc(/C(N)=N/O)c2)cn1`, the solubility falls from 7 µM (≈ 2.93 µg/mL) to 4 µM (≈ 1.81 µg/mL) (1.8-fold).

System: Escherichia coli
Experiment: Antibacterial activity against tolC efflux pump deficient Escherichia coli W3110 assessed as growth inhibition after 18 to 24 hrs by CLSI broth microdilution method
Format: functional
Conditions: not given

Going from `CCNC(=O)Nc1cc(-c2nc(C(F)(F)F)cs2)c(-c2cncc(-c3nc(C)no3)c2)cn1` to `CCNC(=O)Nc1cc(-c2nc(C(F)(F)F)cs2)c(-c2cncc(-c3nnc(C)o3)c2)cn1`, the MIC falls from 0.74 µg/mL (≈ 1.56 µM) to 0.26 µg/mL (≈ 0.547 µM) (2.8-fold).

Compared with `CCNC(=O)Nc1cc(-c2nc(C(F)(F)F)cs2)c(-c2cncc(C#N)c2)cn1`, `CCNC(=O)Nc1cc(-c2nc(C(F)(F)F)cs2)c(-c2cncc(/C(N)=N/O)c2)cn1` is 1.8-fold lower in MIC: 0.33 µg/mL (≈ 0.789 µM) for the first, 0.18 µg/mL (≈ 0.399 µM) for the second.

System: not listed separately
Experiment: Inhibition of ATPase activity in Escherichia coli ParE by ammonium molybdate/malachite green-based absorbance assay
Conditions: not given

Going from `CCNC(=O)Nc1cc(-c2nc(C(F)(F)F)cs2)c(-c2cncc(-c3nc(C)no3)c2)cn1` to `CCNC(=O)Nc1cc(-c2nc(C(F)(F)F)cs2)c(-c2cncc(-c3nnc(C)o3)c2)cn1`, the pIC50 rises from 7.60 to 7.82 (0.22 log units).

Compared with `CCNC(=O)Nc1cc(-c2nc(C(F)(F)F)cs2)c(-c2cncc(C#N)c2)cn1`, `CCNC(=O)Nc1cc(-c2nc(C(F)(F)F)cs2)c(-c2cncc(/C(N)=N/O)c2)cn1` is lower in pIC50: > 8.00 for the first, 7.68 for the second.

System: Moraxella catarrhalis
Experiment: Antibacterial activity against wild type Moraxella catarrhalis ATCC 43617 assessed as growth inhibition after 18 to 24 hrs by CLSI broth microdilution method
Format: functional
Conditions: not given

First: CCNC(=O)Nc1cc(-c2nc(C(F)(F)F)cs2)c(-c2cncc(-c3nc(C)no3)c2)cn1
Second: CCNC(=O)Nc1cc(-c2nc(C(F)(F)F)cs2)c(-c2cncc(-c3nnc(C)o3)c2)cn1
The MIC of the first is 2-fold higher: 0.74 µg/mL (≈ 1.56 µM) for the first, 0.37 µg/mL (≈ 0.778 µM) for the second.

First: CCNC(=O)Nc1cc(-c2nc(C(F)(F)F)cs2)c(-c2cncc(C#N)c2)cn1
Second: CCNC(=O)Nc1cc(-c2nc(C(F)(F)F)cs2)c(-c2cncc(/C(N)=N/O)c2)cn1
The MIC of the first is 1.8-fold higher: 0.33 µg/mL (≈ 0.789 µM) for the first, 0.18 µg/mL (≈ 0.399 µM) for the second.

System: Staphylococcus aureus
Experiment: Antibacterial activity against methicillin-sensitive wild type Staphylococcus aureus assessed as growth inhibition after 18 to 24 hrs by CLSI broth microdilution method
Format: functional
Conditions: not given

First: CCNC(=O)Nc1cc(-c2nc(C(F)(F)F)cs2)c(-c2cncc(-c3nc(C)no3)c2)cn1
Second: CCNC(=O)Nc1cc(-c2nc(C(F)(F)F)cs2)c(-c2cncc(-c3nnc(C)o3)c2)cn1
The MIC of the first is 1.9-fold higher: 0.37 µg/mL (≈ 0.778 µM) for the first, 0.19 µg/mL (≈ 0.4 µM) for the second.

`CCNC(=O)Nc1cc(-c2nc(C(F)(F)F)cs2)c(-c2cncc(C#N)c2)cn1` and `CCNC(=O)Nc1cc(-c2nc(C(F)(F)F)cs2)c(-c2cncc(/C(N)=N/O)c2)cn1` are within 1.5-fold of each other in MIC: 0.33 µg/mL (≈ 0.789 µM) for the first, 0.36 µg/mL (≈ 0.797 µM) for the second.

System: not listed separately
Experiment: Inhibition of ATPase activity in Escherichia coli ParC/ParE by ammonium molybdate/malachite green-based absorbance assay
Conditions: not given

Going from `CCNC(=O)Nc1cc(-c2nc(C(F)(F)F)cs2)c(-c2cncc(-c3nc(C)no3)c2)cn1` to `CCNC(=O)Nc1cc(-c2nc(C(F)(F)F)cs2)c(-c2cncc(-c3nnc(C)o3)c2)cn1`, the pIC50 rises from 5.85 to 6.29 (0.44 log units).

Going from `CCNC(=O)Nc1cc(-c2nc(C(F)(F)F)cs2)c(-c2cncc(C#N)c2)cn1` to `CCNC(=O)Nc1cc(-c2nc(C(F)(F)F)cs2)c(-c2cncc(/C(N)=N/O)c2)cn1`, the pIC50 falls from 5.96 to 5.70 (0.26 log units).

System: not listed separately
Experiment: Octanol-phosphate buffer partition coefficient, log D of the compound at pH 7.4 after 1 hr by shake flask method
Format: physicochemical
Conditions: not given

Going from `CCNC(=O)Nc1cc(-c2nc(C(F)(F)F)cs2)c(-c2cncc(-c3nc(C)no3)c2)cn1` to `CCNC(=O)Nc1cc(-c2nc(C(F)(F)F)cs2)c(-c2cncc(-c3nnc(C)o3)c2)cn1`, the logD at 1 h falls from 3.4 to 2.4.

Going from `CCNC(=O)Nc1cc(-c2nc(C(F)(F)F)cs2)c(-c2cncc(C#N)c2)cn1` to `CCNC(=O)Nc1cc(-c2nc(C(F)(F)F)cs2)c(-c2cncc(/C(N)=N/O)c2)cn1`, the logD at 1 h falls from 2.8 to 2.2.

System: not listed separately
Experiment: Antibacterial activity against wild type Haemophilus influenzae Rd KW20 ATCC 51907 assessed as growth inhibition after 18 to 24 hrs by CLSI broth microdilution method
Format: functional
Conditions: not given

First: CCNC(=O)Nc1cc(-c2nc(C(F)(F)F)cs2)c(-c2cncc(-c3nc(C)no3)c2)cn1
Second: CCNC(=O)Nc1cc(-c2nc(C(F)(F)F)cs2)c(-c2cncc(-c3nnc(C)o3)c2)cn1
The MIC of the first is higher: > 64 µg/mL for the first, 33 µg/mL (≈ 69.4 µM) for the second.

Compared with `CCNC(=O)Nc1cc(-c2nc(C(F)(F)F)cs2)c(-c2cncc(C#N)c2)cn1`, `CCNC(=O)Nc1cc(-c2nc(C(F)(F)F)cs2)c(-c2cncc(/C(N)=N/O)c2)cn1` is 15-fold lower in MIC: 21 µg/mL (≈ 50.2 µM) for the first, 1.4 µg/mL (≈ 3.1 µM) for the second.

System: Escherichia coli
Experiment: Antibacterial activity against wild type Escherichia coli W3110 assessed as growth inhibition after 18 to 24 hrs by CLSI broth microdilution method
Format: functional
Conditions: not given

`CCNC(=O)Nc1cc(-c2nc(C(F)(F)F)cs2)c(-c2cncc(-c3nc(C)no3)c2)cn1` and `CCNC(=O)Nc1cc(-c2nc(C(F)(F)F)cs2)c(-c2cncc(-c3nnc(C)o3)c2)cn1` cannot be ordered by MIC: > 64 µg/mL for the first, > 64 µg/mL for the second.

`CCNC(=O)Nc1cc(-c2nc(C(F)(F)F)cs2)c(-c2cncc(C#N)c2)cn1` and `CCNC(=O)Nc1cc(-c2nc(C(F)(F)F)cs2)c(-c2cncc(/C(N)=N/O)c2)cn1` cannot be ordered by MIC: > 64 µg/mL for the first, > 64 µg/mL for the second.

Molecular target: DNA gyrase subunit B (Staphylococcus aureus, UniProt P0A0K8)
Experiment: Inhibition of ATPase activity in Staphylococcus aureus GyrB tetramer in presence of Escherichia coli GyrA by ammonium molybdate/malachite green-based absorbance assay
Conditions: not given

Sequence of DNA gyrase subunit B (P0A0K8 whole entry): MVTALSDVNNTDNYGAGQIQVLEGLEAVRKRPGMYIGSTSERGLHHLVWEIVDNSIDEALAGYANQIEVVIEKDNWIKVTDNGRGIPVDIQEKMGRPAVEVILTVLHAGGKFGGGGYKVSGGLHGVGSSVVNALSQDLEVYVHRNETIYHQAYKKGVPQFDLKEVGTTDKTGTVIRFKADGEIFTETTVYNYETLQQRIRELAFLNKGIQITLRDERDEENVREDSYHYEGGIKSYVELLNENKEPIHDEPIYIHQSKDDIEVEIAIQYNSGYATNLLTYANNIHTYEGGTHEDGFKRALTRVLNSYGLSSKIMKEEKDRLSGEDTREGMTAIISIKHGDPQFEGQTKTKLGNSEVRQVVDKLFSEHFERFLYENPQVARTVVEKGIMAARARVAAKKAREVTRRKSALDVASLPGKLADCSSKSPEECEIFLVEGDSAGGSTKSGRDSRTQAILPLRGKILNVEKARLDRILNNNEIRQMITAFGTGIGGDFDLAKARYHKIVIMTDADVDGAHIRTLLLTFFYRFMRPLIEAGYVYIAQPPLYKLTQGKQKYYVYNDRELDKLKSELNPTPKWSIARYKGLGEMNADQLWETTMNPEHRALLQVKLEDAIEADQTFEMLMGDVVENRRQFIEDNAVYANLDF

Compared with `CCNC(=O)Nc1cc(-c2nc(C(F)(F)F)cs2)c(-c2cncc(-c3nc(C)no3)c2)cn1`, `CCNC(=O)Nc1cc(-c2nc(C(F)(F)F)cs2)c(-c2cncc(-c3nnc(C)o3)c2)cn1` is higher in pIC50: 7.28 for the first, > 8.00 for the second.

Going from `CCNC(=O)Nc1cc(-c2nc(C(F)(F)F)cs2)c(-c2cncc(C#N)c2)cn1` to `CCNC(=O)Nc1cc(-c2nc(C(F)(F)F)cs2)c(-c2cncc(/C(N)=N/O)c2)cn1`, the pIC50 falls from > 8.00 to 7.14.

System: not listed separately
Experiment: Inhibition of ATPase activity in Escherichia coli GyrA/GyrB by ammonium molybdate/malachite green-based absorbance assay
Conditions: not given

`CCNC(=O)Nc1cc(-c2nc(C(F)(F)F)cs2)c(-c2cncc(-c3nc(C)no3)c2)cn1` and `CCNC(=O)Nc1cc(-c2nc(C(F)(F)F)cs2)c(-c2cncc(-c3nnc(C)o3)c2)cn1` cannot be ordered by pIC50: > 8.00 for the first, > 8.00 for the second.

First: CCNC(=O)Nc1cc(-c2nc(C(F)(F)F)cs2)c(-c2cncc(C#N)c2)cn1
Second: CCNC(=O)Nc1cc(-c2nc(C(F)(F)F)cs2)c(-c2cncc(/C(N)=N/O)c2)cn1
The pIC50 of the first is higher: > 8.00 for the first, 7.49 for the second. The first is the more potent here.

System: not listed separately
Experiment: Volume of distribution at steady state in rat plasma at 10 mg/kg, iv administered 15 mins of infusion measured for 0 to 24 hrs by LC-MS/MS analysis
Format: ADME, organism-based
Set-up: dose 10 mg/kg, route intravenous
Conditions: read-out: Vdss

Compared with `CCNC(=O)Nc1cc(-c2nc(C(F)(F)F)cs2)c(-c2cncc(-c3nc(C)no3)c2)cn1`, `CCNC(=O)Nc1cc(-c2nc(C(F)(F)F)cs2)c(-c2cncc(-c3nnc(C)o3)c2)cn1` is 3.3-fold lower in Vd: 11 L/kg for the first, 3.3 L/kg for the second.

Work on `CCNC(=O)Nc1cc(-c2nc(C(F)(F)F)cs2)c(-c2cncc(C#N)c2)cn1` yielded a Vd of 3.4 L/kg.

System: not listed separately
Experiment: Antibacterial activity against Streptococcus pneumoniae D39 NCTC 7466 assessed as growth inhibition after 18 to 24 hrs by CLSI broth microdilution method
Format: functional
Conditions: not given

`CCNC(=O)Nc1cc(-c2nc(C(F)(F)F)cs2)c(-c2cncc(-c3nc(C)no3)c2)cn1` and `CCNC(=O)Nc1cc(-c2nc(C(F)(F)F)cs2)c(-c2cncc(-c3nnc(C)o3)c2)cn1` cannot be ordered by MIC: < 0.095 µg/mL for the first, 0.05 µg/mL (≈ 0.105 µM) for the second.

`CCNC(=O)Nc1cc(-c2nc(C(F)(F)F)cs2)c(-c2cncc(C#N)c2)cn1` and `CCNC(=O)Nc1cc(-c2nc(C(F)(F)F)cs2)c(-c2cncc(/C(N)=N/O)c2)cn1` cannot be ordered by MIC: < 0.084 µg/mL for the first, < 0.01 µg/mL for the second.

System: Staphylococcus aureus
Experiment: Antibacterial activity against methicillin-resistant and […] Staphylococcus aureus assessed as growth inhibition after 18 to 24 hrs by CLSI broth microdilution method
Format: functional
Conditions: not given

`CCNC(=O)Nc1cc(-c2nc(C(F)(F)F)cs2)c(-c2cncc(-c3nc(C)no3)c2)cn1` and `CCNC(=O)Nc1cc(-c2nc(C(F)(F)F)cs2)c(-c2cncc(-c3nnc(C)o3)c2)cn1` are within 1.5-fold of each other in MIC: 0.19 µg/mL (≈ 0.4 µM) for the first, 0.26 µg/mL (≈ 0.547 µM) for the second.

Compared with `CCNC(=O)Nc1cc(-c2nc(C(F)(F)F)cs2)c(-c2cncc(C#N)c2)cn1`, `CCNC(=O)Nc1cc(-c2nc(C(F)(F)F)cs2)c(-c2cncc(/C(N)=N/O)c2)cn1` is 3.1-fold higher in MIC: 0.23 µg/mL (≈ 0.55 µM) for the first, 0.72 µg/mL (≈ 1.59 µM) for the second.
